Columns and labels:
Abca4^−/−Rdh8^−/− mice = assay: Light-induced acute retinal degeneration in Abca4−/−Rdh8−/− mice (OCT, 11-cis-retinal, ERG); assay type: in vivo; details: 2 mg; dark 24 h, then 10,000 lux 1 h
WT mice = assay: Visual chromophore recovery assay (inhibition of the visual cycle in vivo); details: for inhibition of the recovery of visual chromophore: 24 h after gavage; for recovery of 11-cis-retinal in the eye, of the pre-bleached level: at 6 h after bleaching
LRAT = target: T1, LRAT (Bos taurus, UniProt Q9BGL2); assay: LRAT activity assay with bovine RPE microsomes (esterification of the corresponding primary alcohols); assay type: biochemical; details: for LRAT Substrate: percentage of the corresponding primary alcohol esterified by LRAT in 1 h at 37° C, 10 μM, RPE microsomes
T1 construct: incubated with RPF microsomes that served as a source of LRAT enzymatic activity; from tissue; host or cells: bovine retinal pigment epithelium (RPE) microsomes
T1 sequence (Q9BGL2 1-230): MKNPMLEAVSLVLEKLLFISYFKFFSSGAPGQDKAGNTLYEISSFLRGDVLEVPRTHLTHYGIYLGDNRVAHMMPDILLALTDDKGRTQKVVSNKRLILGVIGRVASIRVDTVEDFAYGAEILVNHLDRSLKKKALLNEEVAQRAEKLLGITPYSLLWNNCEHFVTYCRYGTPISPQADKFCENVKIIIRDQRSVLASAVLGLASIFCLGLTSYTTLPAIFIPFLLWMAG
Protocol: Bovine RPE microsomes were isolated from RPE homogenates by differential centrifugation as previously described. The resulting microsomal precipitate was resuspended in 10 mM Bis-Tris propane/HCl buffer, pH 7.4, to achieve a total protein concentration of […]. Then the mixture was placed in a quartz cuvette and irradiated for 6 min at 4° C. with a ChromatoUVE transilluminator (model TM-15; UVP) to eliminate residual retinoids. After irradiation, DTT was added to the RPE microsomal mixture to achieve a final concentration of 5 mM.
Two μl of a synthesized primary alcohol or amine dissolved in DMF (final concentration 10 μM) and 2 μl of 1,2-diheptanoyl-sn-glicerol-3-phosphocholine (water, final concentration 1 mM) were added to 200 μl of 10 mM Bis-Tris propane/HCl buffer, pH 7.4, containing 150 μg of RPE microsomes and 1% (v/w) BSA. The resulting mixture was incubated at 37° C. for 1 h. The reaction was quenched by adding 300 μl of methanol. Most reaction products were extracted with 300 μl of hexanes, except for products from the QEA-C-006 and QEA-G groups which were extracted by adding 300 μl of ethyl acetate and 300 μl of water.
Reaction products were separated and quantified by normal phase HPLC (Agilent Sil 5 μm, 4.6 mm×250 mm) in stepwise gradient of ethyl acetate in hexanes (0-15 min, 10%; 20-30 min, 30%) at a flow rate of 1.4 ml·min^−1.
The properties of retinoid derivatives were examined by two standard enzymatic tests, the […] and retinoid isomerization assays. To identify substrates of LRAT, aldehydes were reduced by sodium borohydrate to their corresponding primary alcohols that then were directly used in the esterification assay (FIG. 2B).
The alcohols were incubated with RPF microsomes that served as a source of LRAT enzymatic activity. Products of the enzymatic reaction as well as the remaining substrates were extracted with organic solvents and analyzed by HPLC. The ratio between a substrate and its esterified form was used to measure enzymatic activity efficiency, based on equivalent UV absorption of the substrate and product at their specific UV maxim wavelengths. Compounds classified as ‘good’ LRAT substrates converted at least 50% of their available alcohol substrates into corresponding esters under these experimental conditions, whereas marginal LRAT substrates were converted at less than 5%. Alcohols with a 5-50% conversion ratio were classified as weak substrates. Among 35 tested compounds, 23 were categorized as good and 9 as weak substrates; 3 compounds were not esterified by LRAT (Table 1 and FIG. 2C). […] Moreover, breaking double bond conjugation along the polyene chain or deletion of a C9 and/or a C13 methyl group also was allowed.

[1] = Analysis of retinoid composition in mouse tissues: amide forms in liver by HPLC; assay type: in vivo, mice; details: oral gavage; for Protection by amide in liver: 4-week-old Abca4−/−Rdh8−/− mice, dark 24 h, liver extracts by HPLC
Protocol: Abca4^−/−Rdh8^−/− double knockout mice were generated as previously described. Mice were housed in the animal facility at the School of Medicine, Case Western Reserve University, where they were maintained under either complete darkness or in a 12-h light (˜300 lux) and 12-h dark cycle. All tested primary amines were suspended in 100 μl of soybean oil with less than 10% (v/v) DMSO and were administered by oral gavage with a 22-gauge feeding needle. Experimental manipulations in the dark were done under dim red light transmitted through a Kodak No. 1 safelight filter (transmittance >560 nm). All animal procedures and experiments were approved by the Case Western Reserve University Animal Care Committees and conformed to recommendations of the American Veterinary Medical Association Panel on Euthanasia and the Association of Research for Vision and Ophthalmology.
Two mg of primary amines were administered by oral gavage to 4-week-old Abca4^−/−Rdh8^−/− mice, which then were kept in the dark for 24 h. Then mice were euthanized, and their livers were homogenized in 1 ml of 10 mM sodium phosphate buffer, pH 7.4, containing 50% methanol (v/v). The resulting mixture was extracted with 4 ml of hexanes. Extracts were dried in vacuo, and reconstituted in 300 μl of hexanes. 100 μl of this solution was analyzed by HPLC as described above for the LRAT activity assay.
For practical reasons, only eight of these leading compounds (QEA-B-001-NH2, B-002-NH2, C-001-NH2, C-003-NH2, C006-NH2, E-002-NH2, TEA-B-002-NH2, and C00-2-NH2) along with retinylamine as a control were selected for further testing in Abca4^−/−Rdh8^−/− mice, an animal model for light-induced retinal degeneration (Table 2). Additionally, two novel amines with moderate inhibition of RPE65 (QEA-A-006-NH2 and QEA-B-003-NI 12) and one with strong inhibition (QEA-A-005-NH2) were added to the first test group for comparison. Mice were gavaged with 1 mg of a test compound and then kept in the dark for 24 h prior to being exposed to bright light (˜10,000 lux) for 1 h. Retinal damage was assessed with OCT that measured the thickness of the outer nuclear layer and by quantification of tissue 11-cis retinal levels. An example is shown for imaging results in FIG. 4A and for 11-cis-retinal quantification in FIG. 4B. Additionally, extracts of livers obtained from treated mice were analyzed by HPLC to estimate the amounts of corresponding amides (FIG. 4C).

| SMILES | protection of ONL (averaged ONL thickness by OCT) (Abca4^−/−Rdh8^−/− mice) | inhibition of the recovery of visual chromophore (WT mice; 0.1 mg) | inhibition of the recovery of visual chromophore (WT mice; 0.2 mg) | recovered 11-cis-retinal (WT mice; 0.2 mg, day 3 after administration) | inhibitory effect on 11-cis-retinal regeneration (WT mice; 0.2 mg, day 7) | recovery of 11-cis-retinal in the eye, of the pre-bleached level (WT mice; 0.2 mg, light 2 h after administration) | recovery of 11-cis-retinal in the eye, of the pre-bleached level (WT mice; 0.2 mg, light 24 h after administration) | inhibition of the recovery of visual chromophore (WT mice; 0.5 mg) | recovery of 11-cis-retinal (WT mice; 0.5 mg, 7 days after administration) | time point with the strongest inhibition of the retinoid cycle (WT mice; 0.1 to 0.5 mg, gavage 2 h to 7 days before light) | duration of inhibition of the retinoid cycle (WT mice; gavage 2 h to 7 days before light, 11-cis-retinal 6 h after bleaching) | LRAT Substrate (LRAT) | Protection by amide in liver [1] | LRAT substrate class (LRAT; conversion of the alcohol to ester) | amidation in vivo (accumulation of amide forms in mouse liver) ([1]; liver HPLC) |
| --- | --- | --- | --- | --- | --- | --- | --- | --- | --- | --- | --- | --- | --- | --- | --- |
| CC1=C(/C=C/C(C)=C/C=C/C(C)=C/CN)C(C)(C)CCC1 [QEA-A-001-NH2, retinylamine] | protected | about 40% | ~80% | 61±2.2% | nearly disappeared | 50±13% | 22±5.0% | ~95% | 56±9.1% | 24 h | more than 7 days | 100% | Strong |  |  |
| CC(/C=C/C=C(/C=C/C1=CCCCC1)C(C)(C)C)=C\CN [QEA-B-001-NH2] |  |  |  |  |  |  |  |  |  |  |  | 80% | Strong | good (Compounds classified as ‘good’ LRAT substrates converted at least 50% of their available alcohol substrates into corresponding esters) | efficiently converted into amides |
